Reference: patent publication US11464751B2, “Use of fluoroethylnormemantine for the prevention and treatment of anxiety” (REST THERAPEUTICS, priority 2017, dated 2022)

Legend:
naive rats (Wistar) [1] = settings: 5 mg/kg, only after 7 days of treatment; cited from earlier work
naive rats (Wistar) [2] = test: Fear conditioning + extinction + stabilization (PTSD model); format: in vivo, rat; settings: for Percentage of time of tetany (freezing) during the stabilization phase: 10 mg/kg
Description: Several animal models have been developed to mimic the traumatic events that induce intense and recurrent fear symptoms characteristic of PTSD. • Pavlovian fear conditioning of the animals: This animal model consists of Pavlovian-type fear conditioning (Zovkic, Neuropsychopharmacology Reviews (2013) 38, 77-93): mice (or rats) are trained to associate exposure to danger (electric shock, etc.) with the presence of a specific cue or environment (sound cue for example). The memory of this association (danger-cue) is later tested by measuring tetany behavior (through fear) when the animal is re-exposed to the conditioning cue in the absence of real danger.
Again, the occurrence of symptoms of PTSD are assessed after a certain period of time, without exposure to the hazard, to simulate the long-term onset of PTSD pathology. • Fear extinction: After a fear conditioning as described above it can be of interest to apply a protocol to extinguish this fear. Classically, this phase is placed 24 hours after the conditioning phase.
The extinction protocols model the relearning of the normal (non-fear-motivated) response to the cue (sound) and are very useful in modeling PTSD. • Fear stabilization: It can be useful, to assess the performance of a treatment, to add a stabilization phase after the extinction phase, spaced 24 h apart. Typically, this phase puts the animals back under the extinction phase conditions. It then allows the detection of staggered performances of the treatments, but also of the resurgence of tetany (rebound effect).
In the following examples, the effects of memantine, propranolol and fluoroethylnormemantine (FENM, the subject of the present invention) are studied in naive rats (Wistar) subjected to various tests related to depression or anxiety and then compared.
The test substances are administered to rats intraperitoneally in a volume of 5 ml/kg, 30 minutes before the behavioral tests are performed.
The injected solutions contain either of the molecules in the form of one of their salts, a hydrochloride (memantine·HCl and FENM·HCl) for the nitrogen derivatives and as such for propranolol, at the concentrations indicated below in a mixture of 95% (NaCl 0.9% ww in water)/5% ethanol. In each experiment, the dose per kilogram is referenced.
The applicant used a fear conditioning test in which the clue (neutral conditional stimulus) is a sound, coupled with a danger (aversive unconditional stimulus) which is an electric shock delivered by the floor of the box. This conditioning is followed by a fear extinction phase with injection of the treatment solutions to be tested and then by a test phase itself. • Fear Conditioning Phase (FC): fear conditioning takes place in a standard conditioning box (context A, white box in Table 7) and the rats (8 per group) are subjected to 3 “sound-electroshock” pairs at times of 180 s, 381 s and 582 s after being placed in the box. Each sound lasts 20 s and each electroshock lasts 1 s with a current of 1 mA. • The fear extinction phase (Ext.) is conducted as follows: the rats are placed in a box similar to the one that will be used for the final test (context B, pink box in Table 7), for a 25-minute session. During this session, 24 presentations are made with the same sound as that used during the conditioning session (20 s each, 35 s apart). Of course, no electric shock is delivered, and the percentage of time of tetany (“freezing”) during the phase is recorded. • Stabilization phase: the day after the extinction phase, 30 minutes before the test phase, […] of 3 sounds (same sequence as used for conditioning), recording the percentage of time they remain still during this test phase. […]

For `CNCCC(Oc1ccc(C(F)(F)F)cc1)c1ccccc1` (stereo not drawn) [fluoxetine], the “anxiolytic activity (light-dark box, for comparison)” value (naive rats (Wistar) [1]) is given as “anxiolytic activity”.
In the case of `CC(C)NCC(O)COc1cccc2ccccc12` (stereo not drawn) [Propranolol, propranolol, reference compound], the “Percentage of time of tetany (freezing) during the stabilization phase” value (naive rats (Wistar) [2]; Early treatment: one injection 30 minutes before the extinction phase) is reported as 26%, the “Percentage of time of tetany (freezing) during the stabilization phase” value (naive rats (Wistar) [2]; Late treatment: one injection 30 minutes before the stabilization phase) is reported as 29% and the “Percentage of time of tetany (freezing) during the stabilization phase” value (naive rats (Wistar) [2]; Protective effect: one injection 30 minutes before the conditioning phase) is reported as 28%. For the same molecule, the “tetany in the stabilization phase compared with control” value (naive rats (Wistar) [2]; administered at conditioning, early or late post-traumatic treatment) was “does not differentiate from the control” and the “tetany during the extinction phase” value (naive rats (Wistar) [2]; administered during the extinction phase, effect lost during the stabilization phase) was “reduces tetany”.
